Data from US10683553B2, “Method for determining sensitivity to simultaneous inhibitor against PARP and Tankyrase” (THE ASAN FOUNDATION, priority 2015, dated 2020).

Legend:
Format in all cases: cell-based
[1] = test system: LoVo human colon cancer cell line; assay: Trypan blue apoptosis with overexpressed mutant p53 or normal LIG4; conditions: 25 μM and 50 μM, 48 hours
Text: As in Example 12, in order to analyze the degree of apoptosis of Compound B, which is a novel PARP/Tankyrase simultaneous inhibitor, according to the expression of a mutant type p53 and a normal type LIG4 when the p53 genotype is a normal type and an LIG4 genotype is a mutant type, the present inventors treated a novel PARP/Tankyrase simultaneous inhibitor, Compound B, and the competitive drug PARP inhibitor, olaparib, while overexpressing the p53 mutant type and the LIG4 normal type in the LoVo human colon cancer cell line in which the p53 gene is a normal type and an LIG4 genotype is a mutant type. Then, the number of cells was measured by trypan blue staining assay to confirm the degree of apoptosis. The conditions and methods of the above experiment were the same as the methods of RKO cell culturing and transfection methods of Example 12. Compound B, which is a novel PARP/Tankyrase simultaneous inhibitor, and olaparib, which is a competitive drug PARP inhibitor, were treated with each of 25 μM and 50 μM. After 48 hours of culturing, the number of cells was measured by trypan blue staining assay and the degree of apoptosis was confirmed.

[2] = test system: LoVo human colon cancer cell line; assay: Western blot of r-H2AX and cleaved caspase 3 with overexpressed mutant p53 or normal LIG4
Text: In order to analyze the degree of DNA damage and the degree of apoptosis of Compound B, which is a novel PARP/Tankyrase simultaneous inhibitor, according to the expression of a mutant type p53 and a normal type LIG4 when the p53 genotype is a normal type and an LIG4 genotype is a mutant type, the present inventors cultured and treated the LoVo human colon cancer cell line in which the p53 genotype is a normal type and an LIG4 genotype is a mutant type under the same condition as in Example 17.

[3] = test system: RKO human colon cancer cell line; assay: DNA damage by r-H2AX immunocytochemistry; conditions: RKO (p53 normal, LIG4 mutant); 50 μM, 48 hours
Text: In order to analyze the degree of DNA damage of Compound A, which is a novel PARP/Tankyrase simultaneous inhibitor, when the p53 gene is a normal type and the LIG4 gene is a mutant type, the present inventors treated a novel PARP/Tankyrase simultaneous inhibitor, Compound A, and the competitive drug PARP inhibitor, olaparib, in the RKO human colon cancer cell line in which the p53 gene is a normal type and the LIG4 gene is a mutant type, and the DNA damage was confirmed by the immunochemical method as the expression level of r-H2AX. The conditions and methods of the experiment were as follows: RKO human colon cancer cell line in which the p53 gene is a normal type and the LIG4 gene is a mutant type was cultured in RPMI1640 (10% FBS, 1% penicillin/streptomycin) and cultured in a 60 mm plate at 1×10^5 per well for 24 hours at 37° C. […] The r-H2AX antibody was diluted at a ratio of 1:100 in 1% BSA, reacted overnight at 4° C., washed three times for 10 minutes with TBS-T buffer, and the secondary antibody (Alexa Fluor®488 fitc) was diluted at a ratio of 1:100 in 1% BSA, reacted at room temperature for 2 hours, and then washed with TBS-T A buffer three times for 10 minutes, and stained with DAPI to confirm the expression level of r-H2AX under a fluorescence microscope.

[4] = test system: HCT8 human colon cancer cell line; assay: Trypan blue apoptosis with overexpressed mutant LIG4 (G833A or T1704C); conditions: HCT8 overexpressing LIG4 mutant G833A or T1704C vs control group (empty); 25 μM and 50 μM, 48 hours
Text: In order to analyze the degree of apoptosis of Compound A, which is a novel PARP/Tankyrase simultaneous inhibitor, when the p53 genotype is a normal type and an LIG4 genotype is a mutant type, the present inventors treated a novel PARP/Tankyrase simultaneous inhibitor, Compound A, and the competitive drug PARP inhibitor, olaparib, while overexpressing an LIG4 mutant type in the HCT8 human colon cancer cell line in which the p53 gene is a normal type and an LIG4 genotype is a normal type. Then, the number of cells was measured by trypan blue staining assay to confirm the degree of apoptosis. […] After 48 hours of culturing, the number of cells was measured by trypan blue staining and the degree of apoptosis was confirmed.
The present inventors conducted an experiment in the same manner as Example 9 to analyze the degree of apoptosis and DNA damage of Compound A, which is a novel PARP/Tankyrase simultaneous inhibitor, when the p53 genotype is a mutant type and an LIG4 genotype is a mutant type. The number of cells was measured by trypan blue staining method and the degree of apoptosis was confirmed. […] It was washed with TBS-T buffer three times for 15 minutes to induce luminescence of PDVF membrane using ECL buffer solution to develop protein expression on each anti-body using an X-ray film.

[5] = LoVo overexpressing LIG4 normal type gene vs control group (empty)
[6] = LoVo overexpressing p53 mutant type gene vs control group (empty)

Row | SMILES | degree of apoptosis (trypan blue cell count) [1, 5] | degree of apoptosis (trypan blue cell count) [1, 6] | expression amount of cleaved caspase 3 (western blot) [2, 5] | expression of r-H2AX (western blot) [2, 5] | expression amount of cleaved caspase 3 (western blot) [2, 6] | expression of r-H2AX (western blot) [2, 6] | DNA damage: expression level of r-H2AX (immunocytochemistry) [3] | degree of apoptosis (trypan blue cell count) [4]
1 | N#Cc1ccc(N2CCN(Cc3ccc4c5c(c(=O)[nH]c4c3)CCCN5)CC2)nc1 [Compound B, 6-{4-[(5-oxo-1,2,3,4,5,6-hexahydrobenzo[h][1,6]naphthyridin-8-yl)methyl]piperazin-1-yl}nicotinonitrile] | apoptosis was reduced | apoptosis was reduced | reduced | reduced | reduced | reduced | – | –
2 | CCOc1cc(CN(C)C)cc2[nH]c(=O)c3c(c12)NCCC3 [Compound A, 8-[(dimethylamino)methyl]-10-ethoxy-1,2,3,4-tetrahydrobenzo[h][1,6]naphthyridin-5(6H)-one] | – | – | – | – | – | – | expression of r-H2AX was increased | apoptosis was increased
